Measured values from PubChem BioAssay AID248 (DTP/NCI, 2004).
Toxic doses and inconclusive results are not listed. No stated cut-off is given here; in the data, active means T/C of 150% or more; inactive means T/C below 125%.

Tested on: L1210 leukemia ip in BDF1 mice, survival T/C
Assay: NCI In Vivo Anticancer Drug Screen. Data for tumor model L1210 Leukemia (intraperitoneal) in B6D2F1 (BDF1) mice
Conditions: endpoint: mean survival time, higher = longer survival
Summary of the method: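 Each compound was tested against a transplantable tumor grown in mice. The endpoint was survival, with treated animals benchmarked against vehicle controls as a simple ratio.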

[1] = dose: 100.0 mg/kg/injection, schedule: Q01DX009 (ip), vehicle: Klucel (hydroxypropylcellulose) (HPC)
[2] = dose: 100.0 mg/kg/injection, schedule: Q04DX003 (ip), vehicle: Klucel (hydroxypropylcellulose) (HPC)
[3] = dose: 200.0 mg/kg/injection, schedule: Q01DX009 (ip), vehicle: Klucel (hydroxypropylcellulose) (HPC)
[4] = dose: 200.0 mg/kg/injection, schedule: Q04DX003 (ip), vehicle: Klucel (hydroxypropylcellulose) (HPC)
[5] = dose: 400.0 mg/kg/injection, schedule: Q01DX009 (ip), vehicle: Klucel (hydroxypropylcellulose) (HPC)
[6] = dose: 400.0 mg/kg/injection, schedule: Q04DX003 (ip), vehicle: Klucel (hydroxypropylcellulose) (HPC)
[7] = dose: 12.5 mg/kg/injection, schedule: Q01DX009 (ip), vehicle: Klucel (hydroxypropylcellulose) (HPC)
[8] = dose: 50.0 mg/kg/injection, schedule: Q01DX001 (ip), vehicle: saline
[9] = dose: 100.0 mg/kg/injection, schedule: Q01DX001 (ip), vehicle: saline
[10] = dose: 200.0 mg/kg/injection, schedule: Q01DX001 (ip), vehicle: saline
[11] = dose: 400.0 mg/kg/injection, schedule: Q01DX001 (ip), vehicle: saline
[12] = dose: 50.0 mg/kg/injection, schedule: Q01DX009 (ip), vehicle: saline with Tween-80
[13] = dose: 100.0 mg/kg/injection, schedule: Q01DX009 (ip), vehicle: saline with Tween-80
[14] = dose: 200.0 mg/kg/injection, schedule: Q01DX009 (ip), vehicle: saline with Tween-80
[15] = dose: 50.0 mg/kg/injection, schedule: Q01DX009 (ip), vehicle: saline
[16] = dose: 100.0 mg/kg/injection, schedule: Q01DX009 (ip), vehicle: saline
[17] = dose: 400.0 mg/kg/injection, schedule: Q01DX001 (ip), vehicle: saline with Tween-80
[18] = dose: 25.0 mg/kg/injection, schedule: Q01DX009 (ip), vehicle: saline
[19] = dose: 50.0 mg/kg/injection, schedule: Q04DX003 (ip), vehicle: saline
[20] = dose: 100.0 mg/kg/injection, schedule: Q04DX003 (ip), vehicle: saline

Measured: T/C

CCN(CC)C(=Nc1ccc(NC(=O)c2ccc(C(=O)Nc3ccc(N=C(c4ccccc4)N(CC)CC)cc3)cc2)cc1)c1ccccc1
inactive: dose: 15.0 mg/kg/injection, schedule: Q01DX Z (ip), vehicle: carboxymethylcellulose (CMC) 92 % of control | dose: 30.0 mg/kg/injection, schedule: Q01DX Z (ip), vehicle: carboxymethylcellulose (CMC) 93 % of control | dose: 60.0 mg/kg/injection, schedule: Q01DX Z (ip), vehicle: carboxymethylcellulose (CMC) 98 % of control | dose: 120.0 mg/kg/injection, schedule: Q01DX Z (ip), vehicle: carboxymethylcellulose (CMC) 114 % of control

CNc1ccccc1C(N)=O
inactive: [1] 106 % of control | [2] 105 % of control | [3] 98 % of control | [4] 102 % of control | [5] 101 % of control | [6] 96 % of control

CCOc1ccccc1NC(=O)Nc1ccccc1
inactive: [1] 92 % of control | [2] 95 % of control | [3] 96 % of control | [4] 109 % of control | [5] 91 % of control | [6] 98 % of control

CNC(=O)OC(C)(C)C#N
inactive: dose: 100.0 mg/kg/injection, schedule: Q04DX002 (ip), vehicle: saline with Tween-80 101 % of control | dose: 200.0 mg/kg/injection, schedule: Q04DX002 (ip), vehicle: saline with Tween-80 101 % of control | dose: 400.0 mg/kg/injection, schedule: Q04DX002 (ip), vehicle: saline with Tween-80 106 % of control

O=C1c2ccccc2C(=O)N1Cc1cccc([N+](=O)[O-])c1
inactive: [7] 87 % of control | dose: 25.0 mg/kg/injection, schedule: Q01DX009 (ip), vehicle: Klucel (hydroxypropylcellulose) (HPC) 87 % of control | dose: 50.0 mg/kg/injection, schedule: Q01DX009 (ip), vehicle: Klucel (hydroxypropylcellulose) (HPC) 94 % of control | [2] 93 % of control | [4] 97 % of control | [6] 90 % of control

O=C(NCCCl)Nc1ccc2c3c1CCCC3CC2 (centres undefined)
inactive: dose: 50.0 mg/kg/injection, schedule: Q04DX003 (ip), vehicle: Klucel (hydroxypropylcellulose) (HPC) 106 % of control | [2] 107 % of control | [4] 102 % of control

Nc1ncc(C=O)c(N)n1
inactive: dose: 6.25 mg/kg/injection, schedule: Q01DX009 (ip), vehicle: Klucel (hydroxypropylcellulose) (HPC) 113 % of control | [7] 100 % of control

O=C(/C=C\c1ccc(Cl)cc1)OCCCCOC(=O)/C=C/c1ccc(Cl)cc1
inactive: [8] 96 % of control | [9] 93 % of control | [10] 93 % of control | [11] 93 % of control

C=C1C2C3CCC(C3)C2C(O)C2C3CCC(C3)C12 (centres undefined)
inactive: [12] 96 % of control | [13] 93 % of control | [14] 93 % of control

CC(=O)/C(N=O)=C(/C)O
inactive: [15] 111 % of control | [16] 105 % of control | [2] 91 % of control | dose: 200.0 mg/kg/injection, schedule: Q01DX009 (ip), vehicle: saline 104 % of control | [4] 93 % of control | [17] 92 % of control | dose: 400.0 mg/kg/injection, schedule: Q01DX009 (ip), vehicle: saline 111 % of control | [6] 87 % of control

Nc1nc(N)c(N=Nc2ccccc2S(=O)(=O)O)c(=O)[nH]1
inactive: dose: 12.5 mg/kg/injection, schedule: Q01DX009 (ip), vehicle: saline 97 % of control | [18] 97 % of control | [15] 100 % of control | [19] 101 % of control | [9] 96 % of control | [10] 98 % of control | [11] 104 % of control

Cc1ccc2cc3c4ccccc4ccc3[n+](C)c2c1
inactive: dose: 75.0 mg/kg/injection, schedule: Q01DX001 (ip), vehicle: carboxymethylcellulose (CMC) 100 % of control | dose: 150.0 mg/kg/injection, schedule: Q01DX001 (ip), vehicle: carboxymethylcellulose (CMC) 100 % of control | dose: 300.0 mg/kg/injection, schedule: Q01DX001 (ip), vehicle: carboxymethylcellulose (CMC) 102 % of control

O=C(Nc1cccc(C(F)(F)F)c1)Oc1ccc(Cl)cc1Cc1ccccc1
inactive: [13] 98 % of control | [14] 93 % of control | dose: 400.0 mg/kg/injection, schedule: Q01DX009 (ip), vehicle: saline with Tween-80 92 % of control

CC1(C)OC2COC(c3[nH]nc(C(N)=O)c3I)C2O1 (centres undefined)
inactive: dose: 100.0 mg/kg/injection, schedule: Q01DX005 (ip), vehicle: saline 93 % of control | dose: 200.0 mg/kg/injection, schedule: Q01DX005 (ip), vehicle: saline 95 % of control

CC12CCC3C(CC=C4CC(O)CCC43C)C1C/C(=C\c1ccccc1)C2=O (centres undefined)
inactive: dose: 100.0 mg/kg/injection, schedule: Q01DX001 (ip), vehicle: saline with Tween-80 93 % of control | dose: 200.0 mg/kg/injection, schedule: Q01DX001 (ip), vehicle: saline with Tween-80 93 % of control | [17] 92 % of control

O/N=C/Cc1ccccc1
inactive: dose: 100.0 mg/kg/injection, schedule: Q04DX002 (ip), vehicle: DMSO 103 % of control | dose: 200.0 mg/kg/injection, schedule: Q04DX002 (ip), vehicle: DMSO 123 % of control

CCCCCCCCN1N=CC(CC)C1CCC (centres undefined)
inactive: dose: 50.0 mg/kg/injection, schedule: Q01DX001 (ip), vehicle: carboxymethylcellulose (CMC) 105 % of control | dose: 100.0 mg/kg/injection, schedule: Q01DX001 (ip), vehicle: carboxymethylcellulose (CMC) 88 % of control | dose: 200.0 mg/kg/injection, schedule: Q01DX001 (ip), vehicle: carboxymethylcellulose (CMC) 92 % of control

CC(=O)OCC1OC(n2cc(C)c(=O)[nH]c2=O)CC1OC(C)=O (centres undefined)
inactive: dose: 684.0 mg/kg/injection, schedule: Q02DX010 (ip), vehicle: other 99 % of control | dose: 1368.0 mg/kg/injection, schedule: Q02DX010 (ip), vehicle: other 105 % of control | dose: 2052.0 mg/kg/injection, schedule: Q02DX010 (ip), vehicle: other 96 % of control

O=C(Cc1ccccc1)c1ccc(O)cc1O
inactive: [8] 104 % of control | [9] 104 % of control | dose: 100.0 mg/kg/injection, schedule: Q04DX003 (ip), vehicle: gum acacia 113 % of control | [10] 102 % of control | dose: 200.0 mg/kg/injection, schedule: Q04DX003 (ip), vehicle: gum acacia 98 % of control | [11] 102 % of control | dose: 400.0 mg/kg/injection, schedule: Q04DX003 (ip), vehicle: gum acacia 101 % of control

CCC(C)C(CCCN1CCOCC1)(CNC(=O)CN(CC)CC)c1cccc2ccccc12 (centres undefined)
inactive: [18] 94 % of control | [15] 97 % of control | [16] 91 % of control | [20] 102 % of control

O=S1(=O)CC23CCC2(COC3)C1 (centres undefined)
inactive: dose: 12.5 mg/kg/injection, schedule: Q04DX003 (ip), vehicle: saline 97 % of control | dose: 25.0 mg/kg/injection, schedule: Q04DX003 (ip), vehicle: saline 94 % of control | [19] 92 % of control

CC1(C)CC([NH-])CC(C)(C)N1O.CC1(C)CC([NH-])CC(C)(C)N1O.[Cl][Pd][Cl]
inactive: [20] 94 % of control | dose: 200.0 mg/kg/injection, schedule: Q04DX003 (ip), vehicle: saline 105 % of control | dose: 400.0 mg/kg/injection, schedule: Q04DX003 (ip), vehicle: saline 90 % of control

C=CCSc1nc(N)nc2nc[nH]c12
inactive: [12] 122 % of control | [13] 123 % of control | [14] 124 % of control

O=C(CNC(=O)C1CCCN1Sc1ccc([N+](=O)[O-])cc1[N+](=O)[O-])NCC(=O)OCc1ccccc1 (centres undefined)
inactive: dose: 100.0 mg/kg/injection, schedule: Q01DX001 (ip), vehicle: Klucel (hydroxypropylcellulose) (HPC) 98 % of control | dose: 200.0 mg/kg/injection, schedule: Q01DX001 (ip), vehicle: Klucel (hydroxypropylcellulose) (HPC) 103 % of control | dose: 400.0 mg/kg/injection, schedule: Q01DX001 (ip), vehicle: Klucel (hydroxypropylcellulose) (HPC) 98 % of control

CCCCCCCCCCCCCCCOc1ccc(C=Nc2ccc(C)cc2)cc1
inactive: [2] 93 % of control | [4] 102 % of control | [6] 102 % of control

C/C(CC(C)C)=N/Nc1nc(C)cc(=O)[nH]1
inactive: [1] 92 % of control | [2] 105 % of control | [3] 97 % of control | [4] 100 % of control | [6] 92 % of control

CCOC(=O)CN1C(=O)CN=C(c2ccccn2)c2cc(Cl)ccc21
inactive: [13] 91 % of control | [14] 93 % of control
